Values of other authors, collected in US20100323978A1, “Non-aqueous oil delivery system for ophthalmic drugs” (priority 2009, published 2010).
Where a name gives a salt, the structure may show the parent alone. Read-outs that look alike come from different tables or passages of the source.

Columns and labels:
rabbit eyes = conditions: aqueous suspension injected into the eyes for three days
rabbits = conditions: 10 micro Liters eye drop
[1] = warning label
[2] = 0.15 Molar suspended in sesame seed oil

## alpha-hydroxy-testosterone
Rabbit eyes
  intra-ocular pressure: decreased

## CNC[C@H](O)c1cccc(O)c1 [phenylephrine HCl]
rabbits; [2]
  mydriasis in the rabbit: ineffective
rabbits; 0.5 Molar suspended in sesame seed oil
  mydriasis in the rabbit: slightly effective

## CNC[C@H](O)c1cccc(O)c1 [phenylephrine free base]
rabbits; [2]
  mydriasis in the rabbit: produced mydriasis

## CN(C)CCOC(=O)C(c1ccccc1)C1(O)CCCC1 (centres unmarked) [Cyclopentolate HCl]
[1]
  stability of powder: not stable at room temperature
